Publication PMC9516332 (Frontiers in Oncology, 2022)
pIC50: −log10 of the molar value. Where two headings read alike, the source gives them in different places.

Columns and labels:
134 cancer cell lines [1] = assay: Cell viability assay (ATPlite, 72 hours), IC50 on cancer cell line panel
134 cancer cell lines [2] = test system: 134 cancer cell lines
[3] = target: panel of 255 wild-type kinases (Homo sapiens, UniProt P42684); assay: Kinase panel profiling at 1 µmol/L (MSA or IMAP), percentage inhibition; type: biochemical; settings: ARG kinase assay; 1 µmol/L single concentration; read-out: %-inhibition ARG
[4] = target: panel of 255 wild-type kinases (Homo sapiens, UniProt O00311); assay: as above; type: biochemical; settings: CDC7/ASK kinase assay; 1 µmol/L single concentration; read-out: %-inhibition CDC7/ASK
AP-1060 (ETV6-NTRK3) = assay: Cell viability assay; settings: read-out: IC50 in cell proliferation assay

Compound `CN1CCN(c2ccc(C(=O)Nc3n[nH]c4ccc(Cc5cc(F)cc(F)c5)cc34)c(NC3CCOCC3)c2)CC1` [entrectinib] has a pIC50 (134 cancer cell lines [1]; Homo sapiens, NCCIT, read-out: IC50 in cell proliferation assay, NCC-IT cell line) of 5.20, a pIC50 (134 cancer cell lines [1]; Homo sapiens, NCI-H82, read-out: IC50 in cell proliferation assay, cell line NCI-H82) of 5.01 and a pIC50 (134 cancer cell lines [1]; Homo sapiens, NCI-H460, read-out: IC50 in cell proliferation assay, NCI-H460 cell line) of 5.00. For the same compound, the pIC50 (134 cancer cell lines [1]; Homo sapiens, NCI-H661, read-out: IC50 in cell proliferation assay, NCI-H661 cell line) was 5.39, the pIC50 (134 cancer cell lines [1]; Homo sapiens, NCI-H716, read-out: IC50 in cell proliferation assay, cell line NCI-H716 (FGFR2-COL14A1)) was 5.83 and the pIC50 (134 cancer cell lines [1]; Homo sapiens, NCI-H1650, read-out: IC50 in cell proliferation assay, NCI-H1650 cell line (EGFR exon19del)) was 5.61. For the same compound, the pIC50 (134 cancer cell lines [1]; Homo sapiens, NCI-H1975, read-out: IC50 in cell proliferation assay, NCI-H1975 cell line (EGFR p.L858R + p.T790M)) was 5.38, the pIC50 (134 cancer cell lines [1]; Homo sapiens, NCI-H2228, read-out: IC50 in cell proliferation assay, NCI-H2228 cell line (EML4-ALK)) was 6.71 and the pIC50 (134 cancer cell lines [1]; Homo sapiens, OVCAR-3, read-out: IC50 in cell proliferation assay, cell line OVCAR-3) was 5.08. For the same compound, the pIC50 (134 cancer cell lines [1]; Homo sapiens, PFSK-1, read-out: IC50 in cell proliferation assay, cell line PFSK-1) was 5.11, the pIC50 (134 cancer cell lines [1]; Homo sapiens, RL95-2, read-out: IC50 in cell proliferation assay, cell line RL95-2 (EGFR p.A289V)) was 5.48 and the pIC50 (134 cancer cell lines [1]; Homo sapiens, RPMI-7951, read-out: IC50 in cell proliferation assay, cell line RPMI-7951 (BRAF p.V600E)) was 5.40. The pIC50 (134 cancer cell lines [1]; Homo sapiens, RS4-11, read-out: IC50 in cell proliferation assay, cell line RS4;11) was 5.08, the pIC50 (134 cancer cell lines [1]; Homo sapiens, Rec1, read-out: IC50 in cell proliferation assay, cell line REC-1) was 5.30 and the pIC50 (134 cancer cell lines [1]; Homo sapiens, SHP77, read-out: IC50 in cell proliferation assay, cell line SHP-77) was 4.90. For the same compound, the pIC50 (134 cancer cell lines [1]; Homo sapiens, SK-BR-3, read-out: IC50 in cell proliferation assay, cell line SK-BR-3 (ERBB2 amplification)) was 4.96, the pIC50 (134 cancer cell lines [1]; Homo sapiens, SK-N-AS, read-out: IC50 in cell proliferation assay, cell line SK-N-AS) was 5.27 and the pIC50 (134 cancer cell lines [1]; Homo sapiens, SK-N-FI, read-out: IC50 in cell proliferation assay, cell line SK-N-FI) was 5.39. The pIC50 (134 cancer cell lines [1]; Homo sapiens, SK-N-MC, read-out: IC50 in cell proliferation assay, cell line SK-N-MC) was 5.34, the pIC50 (134 cancer cell lines [1]; Homo sapiens, SK-N-SH, read-out: IC50 in cell proliferation assay, cell line SK-N-SH (ALK p.F1174L)) was 5.55 and the pIC50 (134 cancer cell lines [1]; Homo sapiens, SNU-5, read-out: IC50 in cell proliferation assay, cell line SNU-5 (MET amplification)) was 5.02. For the same compound, the pIC50 (134 cancer cell lines [1]; Homo sapiens, SNU-16, read-out: IC50 in cell proliferation assay, cell line SNU-16 (FGFR2 amplification)) was 5.67, the pIC50 (134 cancer cell lines [1]; Homo sapiens, SNU-C2B, read-out: IC50 in cell proliferation assay, cell line SNU-C2B (EGFR p.R165Q)) was 5.09 and the pIC50 (134 cancer cell lines [1]; Homo sapiens, SU-DHL-1, read-out: IC50 in cell proliferation assay, cell line SU-DHL-1 (NPM1-ALK)) was 6.22. It also gave a pIC50 (134 cancer cell lines [1]; Homo sapiens, SU-DHL-6, read-out: IC50 in cell proliferation assay, cell line SU-DHL-6) of 5.11, a pIC50 (134 cancer cell lines [1]; Homo sapiens, SUP-T1, read-out: IC50 in cell proliferation assay, cell line SUP-T1) of 4.96 and a pIC50 (134 cancer cell lines [1]; Homo sapiens, SW48, read-out: IC50 in cell proliferation assay, cell line SW48 (EGFR p.G719S)) of 5.28. It also gave a pIC50 (134 cancer cell lines [1]; Homo sapiens, SW480, read-out: IC50 in cell proliferation assay, cell line SW480) of 5.16, a pIC50 (134 cancer cell lines [1]; Homo sapiens, SW626, read-out: IC50 in cell proliferation assay, cell line SW626) of 5.13 and a pIC50 (134 cancer cell lines [1]; Homo sapiens, SW780, read-out: IC50 in cell proliferation assay, cell line SW780 (FGFR3-BAIAP2L1)) of 5.54. It also gave a pIC50 (134 cancer cell lines [1]; Homo sapiens, SW837, read-out: IC50 in cell proliferation assay, cell line SW837) of 5.08, a pIC50 (134 cancer cell lines [1]; Homo sapiens, SW872, read-out: IC50 in cell proliferation assay, cell line SW872 (BRAF p.V600E)) of 5.22 and a pIC50 (134 cancer cell lines [1]; Homo sapiens, SW900, read-out: IC50 in cell proliferation assay, cell line SW900) of 5.18. It also gave a pIC50 (134 cancer cell lines [1]; Homo sapiens, SW948, read-out: IC50 in cell proliferation assay, cell line SW948) of 5.03, a pIC50 (134 cancer cell lines [1]; Homo sapiens, SW982, read-out: IC50 in cell proliferation assay, cell line SW982 (BRAF p.V600E)) of 5.27 and a pIC50 (134 cancer cell lines [1]; Homo sapiens, SW-620, read-out: IC50 in cell proliferation assay, cell line SW620) of 5.20. The pIC50 (134 cancer cell lines [1]; Homo sapiens, T98G, read-out: IC50 in cell proliferation assay, cell line T98G) was 5.25, the pIC50 (134 cancer cell lines [1]; Homo sapiens, TCC-SUP, read-out: IC50 in cell proliferation assay, cell line TCCSUP) was 5.19 and the pIC50 (134 cancer cell lines [1]; Homo sapiens, THP-1, read-out: IC50 in cell proliferation assay, cell line THP-1) was 4.89. It also gave a pIC50 (134 cancer cell lines [1]; Homo sapiens, U2OS, read-out: IC50 in cell proliferation assay, cell line U2OS) of 5.35, a pIC50 (134 cancer cell lines [1]; Homo sapiens, U-87 MG, read-out: IC50 in cell proliferation assay, cell line U-87MG ATCC) of 5.15 and a pIC50 (134 cancer cell lines [1]; Homo sapiens, U-118-MG, read-out: IC50 in cell proliferation assay, cell line U-118MG) of 5.16. The pIC50 (134 cancer cell lines [1]; Homo sapiens, UMUC3, read-out: IC50 in cell proliferation assay, cell line UM-UC-3) was 5.16, the pIC50 (134 cancer cell lines [1]; Hs766T, read-out: IC50 in cell proliferation assay, Hs 766T cell line) was 5.15 and the pIC50 (134 cancer cell lines [1]; L-82, read-out: IC50 in cell proliferation assay, L-82 cell line (NPM1-ALK)) was 6.90. For the same compound, the pIC50 (134 cancer cell lines [1]; Rh30, read-out: IC50 in cell proliferation assay, cell line Rh30) was 5.33, the pIC50 (134 cancer cell lines [1]; read-out: IC50 in cell proliferation assay, 11-18 cell line (EGFR p.L858R)) was 5.38 and the pIC50 (134 cancer cell lines [1]; read-out: IC50 in cell proliferation assay, Hs 852.T cell line) was 5.39. It also gave a pIC50 (134 cancer cell lines [1]; read-out: IC50 in cell proliferation assay, JAR cell line) of 5.30, a pIC50 (134 cancer cell lines [1]; read-out: IC50 in cell proliferation assay, cell line 5637) of 5.26 and a pIC50 (134 cancer cell lines [1]; read-out: IC50 in cell proliferation assay, cell line A-388) of 4.99. For the same compound, the pIC50 (134 cancer cell lines [1]; read-out: IC50 in cell proliferation assay, cell line DB) was 4.98, the pIC50 (134 cancer cell lines [1]; read-out: IC50 in cell proliferation assay, cell line DEL (NPM1-ALK)) was 6.67 and the pIC50 (134 cancer cell lines [1]; read-out: IC50 in cell proliferation assay, cell line ES-2 (BRAF p.V600E)) was 5.31. It also gave a pIC50 (134 cancer cell lines [1]; read-out: IC50 in cell proliferation assay, cell line PA-1) of 5.52, a pIC50 (134 cancer cell lines [1]; read-out: IC50 in cell proliferation assay, cell line PC-3) of 4.96 and a pIC50 (134 cancer cell lines [1]; read-out: IC50 in cell proliferation assay, cell line RD) of 5.29. For the same compound, the pIC50 (134 cancer cell lines [1]; read-out: IC50 in cell proliferation assay, cell line RKO (BRAF p.V600E)) was 5.33, the pIC50 (134 cancer cell lines [1]; read-out: IC50 in cell proliferation assay, cell line RL) was 4.96 and the pIC50 (134 cancer cell lines [1]; read-out: IC50 in cell proliferation assay, cell line RT-4 (FGFR3-TACC3)) was 5.53. For the same compound, the pIC50 (134 cancer cell lines [1]; read-out: IC50 in cell proliferation assay, cell line SR (NPM1-ALK)) was 6.14, the pIC50 (134 cancer cell lines [1]; read-out: IC50 in cell proliferation assay, cell line T24) was 5.15 and the pIC50 (134 cancer cell lines [1]; read-out: IC50 in cell proliferation assay, cell line TT (RET p.C634W)) was 5.03. For the same compound, the pIC50 (134 cancer cell lines [1]; read-out: IC50 in cell proliferation assay, cell line VA-ES-BJ) was 5.19, the pIC50 (134 cancer cell lines [2]) was 5.11 and the inhibition at 1 µM [3] was 83%. It also gave an inhibition at 1 µM [4] of 0.952% and a pIC50 (AP-1060 (ETV6-NTRK3)) of 7.46.
